From ChEMBL document CHEMBL1909294, “Translating clinical findings into knowledge in drug safety evaluation--drug induced liver injury prediction system (DILIps)” (PLoS Comput Biol, 2011)

Experiments:
Hepatotoxicity [1] = system: Hepatotoxicity;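 on HepSE bilirubinemia: bilirubinemia hepatic side effect score drawn from the DILIps training data, a prediction system for drug-induced liver injury; call rule not given here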;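 on HepSE cholecystitis: Cholecystitis-related hepatic side effect score drawn from the DILIps (drug-induced liver injury prediction) training data set; call rule not given here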;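 on HepSE cholelithiasis: hepatic side effect score for cholelithiasis, drawn from the DILIps training data for predicting drug-induced liver injury; call rule not given here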;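 on HepSE cirrhosis: cirrhosis hepatic side effect score taken from the DILIps (drug-induced liver injury prediction) training set; call rule not given here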;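 on HepSE elevated liver function tests: hepatic side effect score for raised liver function tests, as recorded in the DILIps training set used for predicting drug-induced liver injury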; on HepSE hepatic failure: call rule not given here;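 on HepSE hepatomegaly: hepatic side effect score for hepatomegaly, taken from the training set of the DILIps drug-induced liver injury prediction system; call rule not given here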
Hepatotoxicity [2] = system: Hepatotoxicity; remark: listed apart in the source;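 on HepSE bilirubinemia: bilirubinemia hepatic side effect score drawn from the DILIps training data, a prediction system for drug-induced liver injury; call rule not given here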;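 on HepSE cholecystitis: Cholecystitis-related hepatic side effect score drawn from the DILIps (drug-induced liver injury prediction) training data set; call rule not given here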;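 on HepSE cholelithiasis: hepatic side effect score for cholelithiasis, drawn from the DILIps training data for predicting drug-induced liver injury; call rule not given here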;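 on HepSE cirrhosis: cirrhosis hepatic side effect score taken from the DILIps (drug-induced liver injury prediction) training set; call rule not given here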;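 on HepSE elevated liver function tests: hepatic side effect score for raised liver function tests, as recorded in the DILIps training set used for predicting drug-induced liver injury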; on HepSE hepatic failure: call rule not given here;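 on HepSE hepatomegaly: hepatic side effect score for hepatomegaly, taken from the training set of the DILIps drug-induced liver injury prediction system; call rule not given here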
Hepatotoxicity [3] = system: Hepatotoxicity; remark: listed apart in the source;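 on HepSE bilirubinemia: bilirubinemia hepatic side effect score drawn from the DILIps training data, a prediction system for drug-induced liver injury; call rule not given here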;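 on HepSE cholecystitis: Cholecystitis-related hepatic side effect score drawn from the DILIps (drug-induced liver injury prediction) training data set; call rule not given here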;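 on HepSE cholelithiasis: hepatic side effect score for cholelithiasis, drawn from the DILIps training data for predicting drug-induced liver injury; call rule not given here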;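 on HepSE cirrhosis: cirrhosis hepatic side effect score taken from the DILIps (drug-induced liver injury prediction) training set; call rule not given here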;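 on HepSE elevated liver function tests: hepatic side effect score for raised liver function tests, as recorded in the DILIps training set used for predicting drug-induced liver injury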; on HepSE hepatic failure: call rule not given here
Hepatotoxicity [4] = system: Hepatotoxicity; remark: listed apart in the source;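 on HepSE bilirubinemia: bilirubinemia hepatic side effect score drawn from the DILIps training data, a prediction system for drug-induced liver injury; call rule not given here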;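 on HepSE cholecystitis: Cholecystitis-related hepatic side effect score drawn from the DILIps (drug-induced liver injury prediction) training data set; call rule not given here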;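 on HepSE cholelithiasis: hepatic side effect score for cholelithiasis, drawn from the DILIps training data for predicting drug-induced liver injury; call rule not given here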;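 on HepSE cirrhosis: cirrhosis hepatic side effect score taken from the DILIps (drug-induced liver injury prediction) training set; call rule not given here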;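 on HepSE elevated liver function tests: hepatic side effect score for raised liver function tests, as recorded in the DILIps training set used for predicting drug-induced liver injury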; on HepSE hepatic failure: call rule not given here
Hepatotoxicity [5] = system: Hepatotoxicity; remark: listed apart in the source; on HepSE hepatic failure: call rule not given here
Hepatotoxicity [6] = system: Hepatotoxicity; remark: listed apart in the source; on HepSE hepatic failure: call rule not given here
Hepatotoxicity [7] = system: Hepatotoxicity; remark: listed apart in the source
Hepatotoxicity [8] = system: Hepatotoxicity; remark: listed apart in the source
Hepatotoxicity [9] = system: Hepatotoxicity; remark: listed apart in the source
Hepatotoxicity [10] = system: Hepatotoxicity; remark: listed apart in the source
Hepatotoxicity [11] = system: Hepatotoxicity; remark: listed apart in the source
Hepatotoxicity [12] = system: Hepatotoxicity; remark: listed apart in the source
Hepatotoxicity [13] = system: Hepatotoxicity; remark: listed apart in the source
Hepatotoxicity [14] = system: Hepatotoxicity; remark: listed apart in the source

Cc1ccc(Cl)c(Nc2ccccc2C(=O)O)c1Cl [MECLOFENAMIC ACID]
HepSE_bilirubinemia (Hepatotoxicity [1]): 0
HepSE_cholecystitis (Hepatotoxicity [2]): 0
HepSE_cholelithiasis (Hepatotoxicity [3]): 0
HepSE_cirrhosis (Hepatotoxicity [4]): 0
HepSE_elevated liver function tests (Hepatotoxicity [5]): 0
HepSE_hepatic failure (Hepatotoxicity [6]): 0
HepSE_hepatic necrosis (Hepatotoxicity [7]): 0
HepSE_hepatitis (Hepatotoxicity [8]): 0
HepSE_hepatomegaly (Hepatotoxicity [9]): 0
HepSE_jaundice (Hepatotoxicity [10]): 1
HepSE_liver disease (Hepatotoxicity [11]): 0
HepSE_liver fatty (Hepatotoxicity [12]): 0
HepSE_liver function tests abnormal (Hepatotoxicity [13]): 0
HepSE_Combined Scores (Hepatotoxicity [14]): 1

Cc1cccc(Nc2ccccc2C(=O)O)c1C [MEFENAMIC ACID]
HepSE_bilirubinemia (Hepatotoxicity [1]; Liver): 0
HepSE_cholecystitis (Hepatotoxicity [2]; Liver): 0
HepSE_cholelithiasis (Hepatotoxicity [3]; Liver): 0
HepSE_cirrhosis (Hepatotoxicity [4]; Liver): 0
HepSE_elevated liver function tests (Hepatotoxicity [5]; Liver): 0
HepSE_hepatic failure (Hepatotoxicity [6]; Liver): 1
HepSE_hepatic necrosis (Hepatotoxicity [7]; Liver): 0
HepSE_hepatitis (Hepatotoxicity [8]; Liver): 1
HepSE_hepatomegaly (Hepatotoxicity [9]; Liver): 0
HepSE_jaundice (Hepatotoxicity [10]; Liver): 1
HepSE_liver disease (Hepatotoxicity [11]; Liver): 0
HepSE_liver fatty (Hepatotoxicity [12]; Liver): 0
HepSE_liver function tests abnormal (Hepatotoxicity [13]; Liver): 0
HepSE_Combined Scores (Hepatotoxicity [14]; Liver): 3

OC(c1cc(C(F)(F)F)nc2c(C(F)(F)F)cccc12)C1CCCCN1 (centres undefined) [MEFLOQUINE]
HepSE_bilirubinemia (Hepatotoxicity [1]): 0
HepSE_cholecystitis (Hepatotoxicity [2]): 0
HepSE_cholelithiasis (Hepatotoxicity [3]): 0
HepSE_cirrhosis (Hepatotoxicity [4]): 0
HepSE_elevated liver function tests (Hepatotoxicity [5]): 0
HepSE_hepatic failure (Hepatotoxicity [6]): 0
HepSE_hepatic necrosis (Hepatotoxicity [7]): 0
HepSE_hepatitis (Hepatotoxicity [8]): 0
HepSE_hepatomegaly (Hepatotoxicity [9]): 0
HepSE_jaundice (Hepatotoxicity [10]): 0
HepSE_liver disease (Hepatotoxicity [11]): 0
HepSE_liver fatty (Hepatotoxicity [12]): 0
HepSE_liver function tests abnormal (Hepatotoxicity [13]): 0
HepSE_Combined Scores (Hepatotoxicity [14]): 0

CC(=O)O[C@]1(C(C)=O)CC[C@H]2[C@@H]3C=C(C)C4=CC(=O)CC[C@]4(C)[C@H]3CC[C@@]21C [MEGESTROL ACETATE]
HepSE_bilirubinemia (Hepatotoxicity [1]): 0
HepSE_cholecystitis (Hepatotoxicity [2]): 0
HepSE_cholelithiasis (Hepatotoxicity [3]): 0
HepSE_cirrhosis (Hepatotoxicity [4]): 0
HepSE_elevated liver function tests (Hepatotoxicity [5]): 0
HepSE_hepatic failure (Hepatotoxicity [6]): 0
HepSE_hepatic necrosis (Hepatotoxicity [7]): 0
HepSE_hepatitis (Hepatotoxicity [8]): 0
HepSE_hepatomegaly (Hepatotoxicity [9]): 1
HepSE_jaundice (Hepatotoxicity [10]): 0
HepSE_liver disease (Hepatotoxicity [11]): 0
HepSE_liver fatty (Hepatotoxicity [12]): 0
HepSE_liver function tests abnormal (Hepatotoxicity [13]): 0
HepSE_Combined Scores (Hepatotoxicity [14]): 1

Cc1cnc(NC(=O)C2=C(O)c3ccccc3S(=O)(=O)N2C)s1 [MELOXICAM]
HepSE_bilirubinemia (Hepatotoxicity [1]): 1
HepSE_cholecystitis (Hepatotoxicity [2]): 0
HepSE_cholelithiasis (Hepatotoxicity [3]): 0
HepSE_cirrhosis (Hepatotoxicity [4]): 0
HepSE_elevated liver function tests (Hepatotoxicity [5]): 0
HepSE_hepatic failure (Hepatotoxicity [6]): 1
HepSE_hepatic necrosis (Hepatotoxicity [7]): 0
HepSE_hepatitis (Hepatotoxicity [8]): 1
HepSE_hepatomegaly (Hepatotoxicity [9]): 0
HepSE_jaundice (Hepatotoxicity [10]): 1
HepSE_liver disease (Hepatotoxicity [11]): 0
HepSE_liver fatty (Hepatotoxicity [12]): 0
HepSE_liver function tests abnormal (Hepatotoxicity [13]): 0
HepSE_Combined Scores (Hepatotoxicity [14]): 4

CC12CC3CC(C)(C1)CC(N)(C3)C2 [MEMANTINE]
HepSE_bilirubinemia (Hepatotoxicity [1]): 0
HepSE_cholecystitis (Hepatotoxicity [2]): 0
HepSE_cholelithiasis (Hepatotoxicity [3]): 1
HepSE_cirrhosis (Hepatotoxicity [4]): 0
HepSE_elevated liver function tests (Hepatotoxicity [5]): 0
HepSE_hepatic failure (Hepatotoxicity [6]): 1
HepSE_hepatic necrosis (Hepatotoxicity [7]): 0
HepSE_hepatitis (Hepatotoxicity [8]): 1
HepSE_hepatomegaly (Hepatotoxicity [9]): 0
HepSE_jaundice (Hepatotoxicity [10]): 0
HepSE_liver disease (Hepatotoxicity [11]): 0
HepSE_liver fatty (Hepatotoxicity [12]): 0
HepSE_liver function tests abnormal (Hepatotoxicity [13]): 0
HepSE_Combined Scores (Hepatotoxicity [14]): 3
